The values that follow come from patent US8362066B2, “Compounds and methods for treating protein folding disorders” (Treventis Corporation, priority 2006, dated 2013).

The target in one assay is α-synuclein (Homo sapiens, UniProt P37840). As to the kind of experiment: ThT fluorescence assay, α-synuclein aggregation. In kind it is biochemical. The conditions noted are these: α-synuclein 4 μM; compound 100 μM and 20 μM; 96 hours, 37° C., FIG. 16. The protocol: The following procedures were used. The compounds were examined by circular dichroism (CD) to confirm their anti-amyloidogenic activity and were further evaluated for inhibition of both tau and α-synuclein aggregation in Thioflavin S (ThS) and ThT dye-binding fluorescence assays, respectively. The compounds were also evaluated in a MTT [3-(4,5-dimethylthiazol-2-yl)-2,5-diphenyltetrazolium bromide] cell viability assay (Kaneko, I., et al., J. Neurochem. (1995) 65: 2585-93). Pharmacokinetic (PK) testing was also performed. Compounds administered to mice (IP or PO dosing) had no toxicity at doses up to 300 mg/kg and were present in brain more than four hours after administration.
Dye-binding ThT/ThS protein aggregation assays for Aβ, tau and α-synuclein were performed as described in Example 8 of US2007/0015813.

In assay [1] the test system is APP/PS1 transgenic mice hippocampal slices. Description: LTP electrophysiology in hippocampal slices. In kind it is cell-based. Conditions: 50 μM, FIG. 18. How it is done:
Electrophysiological analysis was performed on males (see detailed description in Gong, B., el al., Cell (2006) 126: 775-88). Hippocampal slices (400 μm) were cut with a tissue chopper and maintained in an interface chamber at 29° C. for 90 min prior to recording. Briefly. CA1 fEPSPs were recorded by placing both the stimulating and the recording electrodes in CA1 stratum radiatum. Basal synaptic transmission was assayed by plotting the stimulus voltages against slopes of fEPSP. For LTP experiments, a 15 min baseline was recorded every min at an intensity that evokes a response ˜35% of the maximum evoked response. LTP was induced using θ-burst stimulation (4 pulses at 100 Hz, with the bursts repeated at 5 Hz and each tetanus including 3 ten-burst trains separated by 15 sec).

Entries after “also recorded” stand apart in the source; their conditions may differ.

Regarding `O=C(O)c1ccc2[nH]cc(-c3ccc4cc(O)ccc4c3)c2c1` [QR-0217], the “inhibition of α-synuclein aggregation (ThT fluorescence)” value against α-synuclein is recorded as “showed inhibition”. Further, the “rescue of LTP impairment” value in assay [1] is “significantly rescued impairment of LTP; also recorded: significantly (P=0.022) rescuing impairment of LTP”.
